Test results as given in patent publication US20140228715A1, “Method and Apparatus for Delivering a Substance” (The General Hospital Corporation, priority 2011, published 2014).

Assay: Franz diffusion cell permeability of GI tissue exposed to ultrasound, scintigraphy of tissue and receiver chamber
Settings: 1-MHz, 1.4 W/cm^2; 5 min ultrasound + 55 min passive diffusion vs 30 min + 30 min

inulin
transport into or across the tissue, effect of irradiation profile: the longer irradiation time was more effective
